Data taken from EP0260744B1, “(1H-imidazol-1-ylmethyl) substituted benzimidazole derivatives” (JANSSEN PHARMACEUTICA N.V., priority 1986, dated 1988).

System: Plasma testosterone concentrations
Experiment: Testosterone in vivo test
Conditions: Rattus norvegicus, 2 h; male rats, oral; LHRH-analogue i.m. after one hour; plasma testosterone two hours after administration; 50% inhibition relative to placebo
Description: Male rats were administered orally a test compound as a solution or as a suspension in aqueous medium. One hour following drug or placebo administration, a luteinizing hormone releasing hormone- analogue was injected intramuscularly and an anaesthetic was administered intraperitonally. Two hours after the oral administration of the test compound the rats were decapitated, and the blood was collected on heparine. Plasma testosterone concentrations were measured by standard radio-immunological procedures. A 50% inhibition relative to the placebo values was considered as the criterion of testosterone inhibitory activity. ED50-values were determined by probit analysis.

SMILES | ED50
Cn1cnc2cc(C(c3ccccc3)n3ccnc3)ccc21 (centres unmarked) [Compound 28] | 2.5 mg/kg
Cn1c(-c2ccccc2)nc2ccc(C(c3ccccc3)n3ccnc3)cc21 (centres unmarked) [Compound 30] | 2.5 mg/kg
c1csc(C(c2ccc3[nH]c(-c4cscn4)nc3c2)n2ccnc2)c1 (centres unmarked) [Compound 34] | 2.5 mg/kg
COc1ccc(-c2nc3cc(C(c4ccccc4)n4ccnc4)ccc3[nH]2)cc1 (centres unmarked) [Compound 49] | < 2.5 mg/kg
c1cn(Cc2ccc3[nH]c(-c4cscn4)nc3c2)cn1 [Compound 51] | 2.5 mg/kg
Nc1ncccc1-c1nc2cc(Cn3ccnc3)ccc2[nH]1 [Compound 53] | 2.5 mg/kg
CCC(c1ccc2[nH]c(-c3ccccc3)nc2c1)n1ccnc1 (centres unmarked) [Compound 54] | 2.5 mg/kg
c1ccc2c(Cc3nc4cc(Cn5ccnc5)ccc4[nH]3)c[nH]c2c1 [Compound 71] | 2.5 mg/kg
CC(c1ccc2[nH]c(C(F)F)nc2c1)n1ccnc1 (centres unmarked) [Compound 78] | < 2.5 mg/kg
CCC(c1ccc2[nH]c(C(F)(F)F)nc2c1)n1ccnc1 (centres unmarked) [Compound 83, 5-[1-(1 H-imidazol-1-yl)propyl]-2-(trifluoromethyl)-1 H-benzimidazole] | < 2.5 mg/kg
CC(C)C(c1ccc2[nH]c(C(F)(F)F)nc2c1)n1ccnc1 (centres unmarked) [Compound 84, 5-[1-(1 H-imidazol-1-yl)-2-methylpropyl]-2-(trifluoromethyl)-1 H-benzimidazole ethanedioate(1:1).hemihydrate] | < 2.5 mg/kg
Fc1ccccc1-c1nc2ccc(C(c3ccccc3)n3ccnc3)cc2[nH]1 (centres unmarked) [Compound 92, 2-(2-fluorophenyl)-5-[(1 H-imidazol-1-yl)phenylmethyl]-1H-benzimidazole ethanedioate(2:3)] | < 2.5 mg/kg
Clc1cccc(C(c2ccc3[nH]cnc3c2)n2ccnc2)c1 (centres unmarked) [Compound 93, 5-[(3-chlorophenyl)-(1 H-imidazol-1-yl)methyl]-1 H-benzimidazole] | 2.5 mg/kg
c1ccc(Cn2cnc3ccc(Cn4ccnc4)cc32)cc1 [Compound 102] | < 2.5 mg/kg
c1ccc(C(c2ccc3[nH]cnc3c2)n2ccnc2)cc1 (centres unmarked) [Compound 111, 5-[(1 H-imidazol-1-yl)phenylmethyl]-1 H-benzimidazole] | < 10 mg/kg
c1cncc(C(c2ccc3[nH]cnc3c2)n2ccnc2)c1 (centres unmarked) [Compound 112, 5-[(1 H-imidazol-1-yl)(3-pyridinyl)methyl]-1 H-benzimidazole] | 2.5 mg/kg
c1csc(C(c2ccc3[nH]cnc3c2)n2ccnc2)c1 (centres unmarked) [Compound 113, 5-[(1H-imidazol-1-yl)(2-thienyl)methyl]-1H-benzimidazole] | < 10 mg/kg
COc1nc2cc(C(c3ccccc3)n3ccnc3)ccc2[nH]1 (centres unmarked) [Compound 115, 5-[(1 H-imidazol-1-yl)phenylmethyl]-2-methoxy-1 H-benzimidazole] | 2.5 mg/kg
CCC(c1ccc2[nH]cnc2c1)n1ccnc1.Cl.Cl (centres unmarked) [Compound 119, 5-[1-(1 H-imidazol-1-yl)propyl]-1 H-benzimidazole dihydrochloride] | 2.5 mg/kg

SMILES | ED50
Cc1nc2cc(C(c3cccc(Cl)c3)n3ccnc3)ccc2[nH]1 (centres unmarked) [Compound 122, 5-[(3-chlorophenyl)(1 H-imidazol-1-yl)methyl]-2-methyl-1 H-benzimidazole] | 2.5 mg/kg
Cc1nc2cc(C(c3cccs3)n3ccnc3)ccc2[nH]1 (centres unmarked) [Compound 125] | 2.5 mg/kg
Cc1nc2cc(C(c3ccc(Cl)cc3Cl)n3ccnc3)ccc2[nH]1 (centres unmarked) [Compound 127] | 10 mg/kg
CCCCCc1nc2cc(Cn3ccnc3)ccc2[nH]1 [Compound 133] | < 2.5 mg/kg
CCCCCc1nc2cc(C(c3ccccc3)n3ccnc3)ccc2[nH]1 (centres unmarked) [Compound 136] | < 2.5 mg/kg
Fc1cccc(-c2nc3cc(Cn4ccnc4)ccc3[nH]2)c1 [Compound 141] | 2.5 mg/kg
Fc1ccc(-c2nc3cc(Cn4ccnc4)ccc3[nH]2)cc1 [Compound 142] | 2.5 mg/kg
Cc1nc2cc(C(C(C)C)n3ccnc3)ccc2n1C (centres unmarked) [Compound 160] | 2.5 mg/kg
Cc1ccc(-c2nc3cc(C(c4ccccc4)n4ccnc4)ccc3[nH]2)cc1 (centres unmarked) [Compound 173] | < 2.5 mg/kg
Fc1ccc(-c2nc3cc(C(c4ccccc4)n4ccnc4)ccc3[nH]2)cc1 (centres unmarked) [Compound 174] | < 2.5 mg/kg
Cc1nc2cc(C(C(C)C)n3ccnc3)ccc2[nH]1 (centres unmarked) [Compound 182] | 2.5 mg/kg
CC(c1ccc2[nH]c(-c3cccnc3)nc2c1)n1ccnc1 (centres unmarked) [Compound 189, 5-[1-(1H-imidazol-1-yl)ethyl]-2-(3-pyridinyl)-1H-benzimidazole] | 2.5 mg/kg
c1ccc(C(c2ccc3[nH]c(-c4cccnc4)nc3c2)n2ccnc2)cc1 (centres unmarked) [Compound 190, 5-[(1 H-imidazol-1-yl)phenylmethyl]-2-(3-pyridinyl)-1H-benzimidazole] | 10 mg/kg
Cc1nc2cc(C(C)n3ccnc3)ccc2[nH]1.Cl.Cl (centres unmarked) [Compound 206, 5-[1-(1 H-imidazol-1-yl)ethyl]-2-methyl-1 H-benzimidazole dihydrochloride] | < 2.5 mg/kg
Cn1c(O)nc2cc(Cn3ccnc3)ccc21 [Compound 222, 5-(1 H-imidazol-1-ylmethyl)-1-methyl-1 H-benzimidazol-2-ol] | < 2.5 mg/kg
COn1c(-c2ccccc2)nc2ccc(Cn3ccnc3)cc21 [Compound 227, 6-(1 H-imidazol-1-ylmethyl)-1-methoxy-2-phenyl-1 H-benzimidazole] | 2.5 mg/kg
COn1c(-c2cccnc2)nc2ccc(Cn3ccnc3)cc21 [Compound 229] | 2.5 mg/kg
COn1c(C)nc2ccc(C(c3ccccc3)n3ccnc3)cc21 (centres unmarked) [Compound 231] | 2.5 mg/kg
COn1c(-c2ccc(F)cc2)nc2ccc(C(C)n3ccnc3)cc21 (centres unmarked) [Compound 235] | 2.5 mg/kg
